Source: ChEMBL document CHEMBL1201862, “PubChem BioAssay data set” (2004)
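Growth conditions: 96-well plates. Treatment: test compound, 48 hours, 5 concentrations. Analysis: linear interpolation between bracketing concentrations; unreached endpoints set to highest concentration. GI50: concentration for 50% inhibition of growth.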 Active and inactive are the calls of the source. Rule as the data show it: active = GI50 up to about 1.1 µM and inactive = higher.

Experiments:
Assay in all cases: DTP human tumour cell line panel, 48 h
SF-295 = tested on: SF-295
DMS-114 = tested on: DMS-114
SN12C = tested on: SN12C
OVCAR-3 = tested on: OVCAR-3
KM-20L2 = tested on: KM-20L2
NCI/ADR-RES = tested on: NCI/ADR-RES
SNB-78 = tested on: SNB-78
HL-60 = tested on: HL-60
KM12 = tested on: KM12
U-251 = tested on: U-251
UACC-62 = tested on: UACC-62
Malme-3M = tested on: Malme-3M
M14 = tested on: M14
NCI-H226 = tested on: NCI-H226

Measured: GI50

C[C@@H]1C[C@]2(C[C@@H](C)[C@H]3C(C[C@@]4(C)CCC[C@@H]5C6=C[C@H](CCC34C)OC6=CC(=O)OC5(C)C)O2)OC1=O (some centres undefined)
inactive: SF-295 > 51.5 µM | DMS-114 > 51.5 µM | SN12C > 51.5 µM | OVCAR-3 > 51.5 µM | KM-20L2 > 51.5 µM | NCI/ADR-RES > 51.5 µM | SNB-78 > 51.5 µM | HL-60 > 51.5 µM | KM12 > 51.5 µM | U-251 > 51.5 µM | UACC-62 > 51.5 µM

CC(=O)c1ccc(Oc2ccc(/C(C)=N\N=C(N)N)cc2)cc1
inactive: SF-295 2.38 µM | DMS-114 1.43 µM | Malme-3M 1.97 µM | M14 1.5 µM | SN12C 3.17 µM | OVCAR-3 1.99 µM | KM-20L2 1.71 µM | SNB-78 2.8 µM | U-251 2.77 µM | UACC-62 2 µM

CCCCCCCCCCCCCCCc1ccc(OCC(O)CO)cc1 (centres undefined)
inactive: SF-295 50.1 µM | DMS-114 29.7 µM | Malme-3M 22.4 µM | M14 17.9 µM | NCI-H226 25.7 µM | SN12C 18 µM | OVCAR-3 23 µM | KM-20L2 31.6 µM | SNB-78 29.7 µM | HL-60 27.7 µM | KM12 17.2 µM | U-251 23.7 µM | UACC-62 23.9 µM

CCOC(=O)C1=C(C)N(C2OC(COC(C)=O)C(OC(C)=O)C(OC(C)=O)C2OC(C)=O)C(=O)NC1c1ccccc1 (centres undefined)
inactive: SF-295 > 100 µM | DMS-114 > 100 µM | Malme-3M > 100 µM | M14 > 100 µM | NCI-H226 > 100 µM | SN12C > 100 µM | OVCAR-3 > 100 µM | KM-20L2 > 100 µM | SNB-78 > 100 µM | HL-60 > 100 µM | KM12 > 100 µM | U-251 > 100 µM | UACC-62 > 100 µM

CSc1cc(=O)n2c3ccccc3c3ccnc1c32
inactive: SF-295 > 65.2 µM | DMS-114 > 100 µM | Malme-3M > 86.7 µM | NCI-H226 14.2 µM | SN12C > 100 µM | OVCAR-3 > 100 µM | KM-20L2 > 61.8 µM | NCI/ADR-RES 73.8 µM | SNB-78 > 70.8 µM | HL-60 > 100 µM | KM12 > 82.2 µM | U-251 > 55.6 µM | UACC-62 41.4 µM

COc1cc2cc[n+]3c(C)c4cc(OC)c(OC)cc4c([O-])c3c2cc1OC
inactive: SF-295 > 100 µM | DMS-114 30.3 µM | Malme-3M 26.9 µM | M14 > 100 µM | NCI-H226 33.1 µM | SN12C 32.7 µM | OVCAR-3 3.44 µM | KM-20L2 53.2 µM | SNB-78 > 100 µM | HL-60 16.9 µM | KM12 70.1 µM | U-251 47.1 µM | UACC-62 > 100 µM

CCOC(=O)c1ccc(N2C(=O)/C(=C/c3ccc(N(CCC#N)CCC#N)cc3)N=C2c2cc([N+](=O)[O-])ccc2Cl)cc1
inactive: SF-295 > 100 µM | DMS-114 > 100 µM | Malme-3M > 100 µM | NCI-H226 > 100 µM | SN12C > 100 µM | OVCAR-3 > 100 µM | KM-20L2 > 100 µM | SNB-78 > 100 µM | KM12 > 100 µM | U-251 > 100 µM | UACC-62 93.3 µM
